Converted amounts (≈) assume the structure as drawn. Structures can show the parent of a compound that is named as a salt.
Columns and labels:
[1] = tested on: Vibrio fischeri; assay: Acute toxicity exposure experiments of VOCs in a liquid state (conventional method); format: cell-based; details: for IC50: Aliivibrio fischeri
[2] = tested on: Vibrio fischeri; assay: Acute toxicity of gaseous VOCs to hydrogel-microsphere-fixed Vibrio fischeri in exposure chamber (luminescence change); format: cell-based; details: for IC50: Aliivibrio fischeri; for IC50 (15 min) Ratio: liquid IC50 / gaseous IC50, 15 min; for IC50 (30 min) Ratio: liquid IC50 / gaseous IC50, 30 min; for IC50 (45 min) Ratio: liquid IC50 / gaseous IC50, 45 min; for IC50 (60 min) Ratio: liquid IC50 / gaseous IC50, 60 min; for minimum detection limit: no pre-concentration
Experimental: A method for using the exposure device for exposing microorganisms to gaseous pollutants provided in the present application includes steps as follows: • (1) preparing the hydrogel microspheres with microorganisms: culturing microorganisms in a culture medium dissolved with 1.5% of sodium alginate for 3 h to 4 h, and after OD600 is greater than 0.1, uniformly dripping the microorganisms into a 1.5% calcium chloride solution through a peristaltic pump at a rate of 1.5 ml/min to obtain the hydrogel microspheres with microorganisms; taking out and placing the hydrogel microspheres in a culture medium for use; • (2) sequentially loading the hydrogel microspheres fixed with microorganisms in the multi-well exposure tray according to a detection requirement, and detecting an initial intensity of fluorescent signals of the hydrogel microspheres fixed with microorganisms; • (3) fixing the multi-well exposure tray to a lower end of the vertical pipe of the T-shaped air flow-mixing pipe through threads, and connecting the pressurizing air outlet pipe to the T-shaped air flow-mixing pipe, wherein silicone seal gaskets are mounted at all threaded connections to ensure leakproofness of the exposure device; • (4) placing the exposure device in an in-situ multi-toxicity endpoint detection system for VOCs or an in-situ multi-toxicity endpoint detection system for atmospheric particulate matter to make the gaseous pollutants enter the exposure device through the first and second depressurizing air inlet pipes at a flow rate ranging from 0.3 L/min to 2.0 L/min; and • (5) continuously introducing the gaseous pollutants for 15 min to 60 min, and then introducing clean air for 8 min to 10 min to completely replace the gaseous pollutants in the detection system; removing the multi-well exposure tray, and sequentially placing the hydrogel microspheres in the multi-well exposure tray into a 96 well plate, and detecting a final intensity of fluorescent signals of the hydrogel microspheres fixed with microorganisms in the plurality of channels by using a microplate reader to obtain an intensity change of fluorescent signals.
A commercial VOCs generator is used to accurately generate seven different VOCs with nine gradient concentrations, involving aldehydes (formaldehyde and acetaldehyde), pyridines (pyridine), alcohols (n-butyl alcohol), acyls and ketones (acetylacetone), benzenes, and phenols (phenol). Natural luminescent bacteria Vibrio fischeri as a target, is fixed by using hydrogel microspheres, and is arranged in an exposure chamber. VOCs are sequentially introduced into the exposure chamber at a flow rate of 0.5 L/min. After exposure for 15 min, 30 min, 45 min, and 60 min, Vibrio fischeri is taken out, and intensity change of fluorescent signals of Vibrio fischeri are measured by using a microplate reader. Concentration-acute toxicity curves of the gaseous pollutant comprising different VOCs and mixed VOCs are fitted by using analysis software, to obtain the IC50 value of acute toxicity of the gaseous pollutants.

[3] = tested on: Vibrio fischeri; details: concentration ratio 10 times
Source text: (1) According to a detection requirement in this embodiment, the quantity of the multi-well exposure tray that need to be loaded is 1, and only one type of the hydrogel microspheres fixed with natural fluorescent microorganisms Vibrio fischeri is provided, and the quantity of hydrogel microspheres fixed with microorganisms that need to be used is 60. An initial fluorescence intensity of each hydrogel microsphere is detected and recorded, and the hydrogel microspheres are placed in the multi-well exposure tray, the multi-well exposure tray is loaded into the exposure device, and the detection system is sealed. […]
(4) The system-controlled vacuum pump at the distal end of the detection system and the vacuum pump of the gas circulation device are turned on, and the concentrated VOCs is introduced into the exposure device at 0.5 L/min, wherein exposure is set to last 15 min, 30 min, 45 min, and 60 min; and stability of the flowmeter of the gas circulation device and the system-controlled flowmeter at the distal end of the detection system during the process is monitored.
(5) After exposure to VOCs is completed, a microplate reader is used to measure final fluorescence intensity of each hydrogel microsphere, and changes of the initial fluorescence intensity and the final fluorescence intensity are obtained.

[4] = tested on: recombined Escherichia coli carrying plasmids with different gene pathway; assay: Genotoxicity of gaseous dimethyl sulfate with the in-situ multi-toxicity endpoint detection system for VOCs (Embodiment 1); details: exposure 20-500 mg/m^3, 15 min, 0.5 L/min
Experimental: Embodiment 1: Genotoxicity of an artificial gaseous pollutant (dimethyl sulfate) is detected by using the in-situ multi-toxicity endpoint detection system for volatile organic compounds (VOCs) constructed in the present application. Specific steps are as follows:
In this embodiment, a Tenax TA multi-well polymer adsorbent is selected as the adsorption material to be filled in an adsorber of the atmospheric pre-concentrator, and a mixed liquid of 50% of ethanol and 50% of pure water is added to the gas-washing bottle and the high-temperature steam generator.
(2) According to a detection requirement in this embodiment, the quantity of the multi-well exposure tray that need to be loaded is 6, 29 types of hydrogel microspheres fixed with recombined Escherichia coli carrying plasmids with different gene pathway are provided, and the quantity of each type of hydrogel microspheres fixed with microorganisms that need to be used is 15. An initial fluorescence intensity of each hydrogel microsphere is detected and recorded, and the hydrogel microspheres are placed in the multi-well exposure tray, the multi-well exposure tray is loaded into the exposure device, and the detection system is sealed. […]

[5] = 0.25 h, 15 min, read-out: IC50 (15 min) Liquid
[6] = 0.5 h, 30 min, read-out: IC50 (30 min) Liquid
[7] = 0.75 h, 45 min, read-out: IC50 (45 min) Liquid
[8] = 1 h, 60 min, read-out: IC50 (60 min) Liquid
[9] = 0.25 h, gaseous exposure, 15 min, 0.5 L/min, read-out: IC50 (15 min) Gaseous
[10] = 0.5 h, gaseous exposure, 30 min, 0.5 L/min, read-out: IC50 (30 min) Gaseous
[11] = 0.75 h, gaseous exposure, 45 min, 0.5 L/min, read-out: IC50 (45 min) Gaseous
[12] = 1 h, gaseous exposure, 60 min, 0.5 L/min, read-out: IC50 (60 min) Gaseous

Question: `CC=O` [Acetaldehyde] was tested. Which IC50 [1, 5] did it give?
Answer: The IC50 was 640 µg/mL (≈ 14500 µM).

Question: And the IC50 [1, 6]?
Answer: The IC50 was 580 µg/mL (≈ 13200 µM).

Question: What about the IC50 [1, 7] of the same compound?
Answer: Its IC50 is 580 µg/mL (≈ 13200 µM).

Question: What about the IC50 [1, 8] of the same compound?
Answer: The IC50 was 600 µg/mL (≈ 13600 µM).

Question: And the IC50 [2, 9]?
Answer: The IC50 was 2.12 µg/mL (≈ 48.1 µM).

Question: What about the IC50 [2, 10] of the same compound?
Answer: The IC50 was 1.29 µg/mL (≈ 29.3 µM).

Question: What about the IC50 [2, 11] of the same compound?
Answer: Its IC50 is 0.83 µg/mL (≈ 18.8 µM).

Question: And the IC50 [2, 12]?
Answer: The IC50 was 0.49 µg/mL (≈ 11.1 µM).

Question: And the “IC50 (15 min) Ratio” value [2]?
Answer: Its value is 302.

Question: What about the “IC50 (30 min) Ratio” value [2] of the same compound?
Answer: The value was 450.

Question: What about the “IC50 (45 min) Ratio” value [2] of the same compound?
Answer: Its value is 699.

Question: And the “IC50 (60 min) Ratio” value [2]?
Answer: Its value is 1224.

Question: Which results are given for `CC(=O)CC(C)=O` [Acetylacetone]?
Answer: IC50 [1, 5]: 280 µg/mL (≈ 2800 µM); IC50 [1, 6]: 250 µg/mL (≈ 2500 µM); IC50 [1, 7]: 310 µg/mL (≈ 3100 µM); IC50 [1, 8]: 250 µg/mL (≈ 2500 µM); IC50 [2, 9]: 0.28 µg/mL (≈ 2.8 µM); IC50 [2, 10]: 0.19 µg/mL (≈ 1.9 µM); IC50 [2, 11]: 0.13 µg/mL (≈ 1.3 µM); IC50 [2, 12]: 0.11 µg/mL (≈ 1.1 µM); IC50 (15 min) Ratio [2]: 1000; IC50 (30 min) Ratio [2]: 1316; IC50 (45 min) Ratio [2]: 2385; IC50 (60 min) Ratio [2]: 2273

Question: What does the source list for `C=O` [Formaldehyde]?
Answer: IC50 [1, 5]: 16.3 µg/mL (≈ 544 µM); IC50 [1, 6]: 15.6 µg/mL (≈ 521 µM); IC50 [1, 7]: 15.4 µg/mL (≈ 514 µM); IC50 [1, 8]: 14.8 µg/mL (≈ 492 µM); IC50 [2, 9]: 0.00481 µg/mL (≈ 0.16 µM); IC50 [2, 10]: 0.00234 µg/mL (≈ 0.0779 µM); IC50 [2, 11]: 0.00181 µg/mL (≈ 0.0603 µM); IC50 [2, 12]: 0.00129 µg/mL (≈ 0.043 µM); minimum detection limit ([2]; gaseous exposure): 1.3 mg/m^3; IC50 (15 min) Ratio [2]: 3395; IC50 (30 min) Ratio [2]: 6684; IC50 (45 min) Ratio [2]: 8519; IC50 (60 min) Ratio [2]: 11457; minimum detection limit at concentration ratio of 10 times [3]: 0.13 mg/m^3

Question: For `CCCCO` [N-butyl alcohol], which “IC50 (15 min) Liquid” value ([1]; 15 min) is on record?
Answer: Its value is 1790 µg/mL (≈ 24100 µM).

Question: And the “IC50 (30 min) Liquid” value ([1]; 30 min)?
Answer: Its value is 1840 µg/mL (≈ 24800 µM).

Question: What about the “IC50 (45 min) Liquid” value ([1]; 45 min) of the same compound?
Answer: Its value is 1840 µg/mL (≈ 24800 µM).

Question: What about the “IC50 (60 min) Liquid” value ([1]; 60 min) of the same compound?
Answer: Its value is 1850 µg/mL (≈ 25000 µM).

Question: And the “IC50 (15 min) Gaseous” value ([2]; gaseous exposure, 15 min, 0.5 L/min)?
Answer: Its value is 1.05 µg/mL (≈ 14.2 µM).

Question: And the “IC50 (30 min) Gaseous” value ([2]; gaseous exposure, 30 min, 0.5 L/min)?
Answer: The value was 0.73 µg/mL (≈ 9.85 µM).

Question: And the “IC50 (45 min) Gaseous” value ([2]; gaseous exposure, 45 min, 0.5 L/min)?
Answer: The value was 0.53 µg/mL (≈ 7.15 µM).

Question: And the “IC50 (60 min) Gaseous” value ([2]; gaseous exposure, 60 min, 0.5 L/min)?
Answer: Its value is 0.40 µg/mL (≈ 5.4 µM).

Question: What about the “IC50 (15 min) Ratio” value [2] of the same compound?
Answer: Its value is 1705.

Question: What about the “IC50 (30 min) Ratio” value [2] of the same compound?
Answer: Its value is 2521.

Question: And the “IC50 (45 min) Ratio” value [2]?
Answer: Its value is 3472.

Question: What about the “IC50 (60 min) Ratio” value [2] of the same compound?
Answer: Its value is 4625.

Question: Which IC50 [1, 5] does the source give for `Oc1ccccc1` [Phenol] here?
Answer: The IC50 was 270 µg/mL (≈ 2870 µM).

Question: And the IC50 [1, 6]?
Answer: The IC50 was 290 µg/mL (≈ 3080 µM).

Question: And the IC50 [1, 7]?
Answer: Its IC50 is 320 µg/mL (≈ 3400 µM).

Question: What about the IC50 [1, 8] of the same compound?
Answer: Its IC50 is 320 µg/mL (≈ 3400 µM).

Question: And the IC50 [2, 9]?
Answer: The IC50 was 0.0689 µg/mL (≈ 0.732 µM).

Question: What about the IC50 [2, 10] of the same compound?
Answer: The IC50 was 0.0363 µg/mL (≈ 0.386 µM).

Question: What about the IC50 [2, 11] of the same compound?
Answer: Its IC50 is 0.028 µg/mL (≈ 0.298 µM).

Question: What about the IC50 [2, 12] of the same compound?
Answer: The IC50 was 0.0202 µg/mL (≈ 0.215 µM).

Question: What about the minimum detection limit ([2]; gaseous exposure) of the same compound?
Answer: The minimum detection limit was 20.31 mg/m^3.

Question: And the “IC50 (15 min) Ratio” value [2]?
Answer: Its value is 3921.

Question: What about the “IC50 (30 min) Ratio” value [2] of the same compound?
Answer: The value was 7991.

Question: And the “IC50 (45 min) Ratio” value [2]?
Answer: Its value is 11424.

Question: What about the “IC50 (60 min) Ratio” value [2] of the same compound?
Answer: The value was 15818.

Question: What about the “minimum detection limit at concentration ratio of 10 times” value [3] of the same compound?
Answer: The value was 2.03 mg/m^3.

Question: How did the IC50 [1, 5] turn out when `c1ccncc1` [Pyridine] was run?
Answer: The IC50 was 1020 µg/mL (≈ 12900 µM).

Question: And the IC50 [1, 6]?
Answer: The IC50 was 1080 µg/mL (≈ 13700 µM).

Question: What about the IC50 [1, 7] of the same compound?
Answer: Its IC50 is 1140 µg/mL (≈ 14400 µM).

Question: And the IC50 [1, 8]?
Answer: The IC50 was 1250 µg/mL (≈ 15800 µM).

Question: And the IC50 [2, 9]?
Answer: The IC50 was 1.5 µg/mL (≈ 19 µM).

Question: What about the IC50 [2, 10] of the same compound?
Answer: Its IC50 is 1.25 µg/mL (≈ 15.8 µM).

Question: And the IC50 [2, 11]?
Answer: Its IC50 is 0.88 µg/mL (≈ 11.1 µM).

Question: And the IC50 [2, 12]?
Answer: Its IC50 is 0.5 µg/mL (≈ 6.32 µM).

Question: And the “IC50 (15 min) Ratio” value [2]?
Answer: The value was 680.

Question: And the “IC50 (30 min) Ratio” value [2]?
Answer: Its value is 864.

Question: And the “IC50 (45 min) Ratio” value [2]?
Answer: Its value is 1295.

Question: What about the “IC50 (60 min) Ratio” value [2] of the same compound?
Answer: Its value is 2500.

Question: For `COS(=O)(=O)OC` [dimethyl sulfate], which “gene pathways significantly upregulated (of 29 key gene pathways)” value [4] is on record?
Answer: Its value is “Nine of these gene pathways are significantly upregulated”.

Question: And the “genotoxicity / toxicity effects indicated” value [4]?
Answer: The value was “may cause inhibition of cell division, oxidative stress, protein stress, and severe DNA damage, mutation, and recombination”.

Reference: US20250115941A1, “Exposure device for exposing microorganisms to gaseous pollutants and detection system thereof” (priority 2023, published 2025)
